Laboratory results taken from publication PMC11641365, “Evaluation of In Vitro Biological Activity of Flavanone/Chromanone Derivatives: Molecular Analysis of Anticancer Mechanisms in Colorectal Cancer” (International Journal of Molecular Sciences, 2024).

What was measured:
Type in all cases: cell-based, human
[1] = system: HT-29; experiment: Intracellular GSH level, monochlorobimane (MCB) probe; settings: compound at IC50, 24 h, vs control
Protocol: The spectrofluorimetric method with monochlorobimane (MCB; Sigma-Aldrich; St. Louis, MO, USA) was used to determine GSH. Monochlorobimane reacts with glutathione in a reaction catalyzed by cellular glutathione S-transferase. The reaction produces a fluorescent bimane-glutathione conjugate (GSH-MCB). A major advantage of MCB is its ability to penetrate the cell membrane, which is why it is used as a probe to determine the amount of GSH in living cells.
Cells were seeded in black 96-well fluorometric microplates at a density of 10 × 10^3 cells/mL. […] Following compound incubation, the medium was removed, and the cell monolayers were washed twice with HBSS (140 mM NaCl, 5 mM KCl, 0.8 mM MgCl2, 1.8 mM CaCl2, 1 mM Na2HPO4, 10 mM HEPES, and 1% glucose). A solution of MCB at a final concentration of 40 μM was added to each well and incubated in a CO2 cell culture incubator at 37 °C for 20 min. A 40 mM MCB stock solution was prepared by dissolving 9 mg of the reagent in 1 mL of absolute ethanol. Fluorescence was measured using a Perkin-Elmer LS-5B spectrofluorometer (Waltham, MA, USA) at the following excitation and fluorescence emission wavelengths: λex = 380 nm/λem = 470 nm. After incubation with MCB, the cells were lysed with 50 μL of lysis buffer (10 mM TRIS-HCl; pH 8 containing 0.1% Triton X-100). In order to normalize the number of cells in individual samples, the amount of DNA was determined by adding 50 μL of ethidium bromide (EB, final concentration 0.2 mM) to each well after measuring the MCB fluorescence and measuring the EB fluorescence at an excitation wavelength of λex = 530 nm and an emission wavelength of λem = 590 nm. The results obtained using the standard curve were converted to nM of GSH.

[2] = system: HT-29; experiment: Superoxide anion level, DHE probe; settings: compound at IC50, 24 h, vs control
Protocol: Superoxide anion (O2^•−) levels were quantified using a microplate spectrofluorometric assay with dihydroethidium (DHE) (Life Technologies, Carlsbad, CA, USA). DHE is a well-established fluorogenic probe for intracellular superoxide detection. […] The reaction between superoxide and DHE produces a highly specific red fluorescent product, 2-hydroxyethidium (2-OH-E ^+).
(§1) Cells were seeded in black 96-well fluorometric microplates at a density of 10 × 10^3 cells/mL. […] Following compound incubation, the medium was removed, and the cell monolayers were washed twice with HBSS (140 mM NaCl, 5 mM KCl, 0.8 mM MgCl2, 1.8 mM CaCl2, 1 mM Na2HPO4, 10 mM HEPES, and 1% glucose). A volume of 50 µL of DHE solution in HBSS (final concentration 5 μM) was added to each well, and the cells were incubated for 30 min in the dark at 37 °C. After incubation with the DHE, fluorescence measurements were conducted using a Perkin-Elmer LS-5B spectrofluorometer (Waltham, MA, USA) at the following excitation and fluorescence emission wavelengths: λex = 498 nm/λem = 582 nm. The fluorescence intensity of control cells was arbitrarily assigned a value of 100%. The results were expressed as percentages of control, calculated by comparing the fluorescence intensity ratio of the test samples to controls (100%). The fluorescence of samples was denoted as Δf in relation to the control.

[3] = system: HT-29; experiment: Cell cycle analysis via flow cytometry (propidium iodide); settings: compound at IC50, 24 h, vs control
Protocol: The most commonly used fluorescent dyes for cell cycle analysis are fluorochromes that penetrate the cell membrane into the interior of permeabilized cells and bind stoichiometrically to DNA via intercalation, e.g., DAPI, propidium iodide (PI). The analysis is performed on cells fixed in ethanol. In this work, the cell cycle analysis was performed using the method described by Darzynkiewicz and Juan.
Cells (10 × 10^3) were seeded in 35 mm dishes and cultured in the medium for 24 h to attain the logarithmic growth phase. […] Subsequently, cells were trypsinized and centrifuged for 10 min at 400× g at 4 °C. The cell suspension in 100 μL of PBS was fixed in 1 mL of 70% ethanol (−20 °C) and stored at this temperature until analysis. Immediately before analysis, the ethanol-fixed cell suspension was centrifuged at 10,000 rpm for 10 min at 4 °C. The pellet was washed with cold (4 °C) PBS to remove residual ethanol, and the cell suspension was centrifuged again under the same conditions. A volume of 300 μL of PBS containing 4 mg/mL propidium iodide (final concentration 75 μM) and 1 mg/mL RNAse A (final concentration 20 μg/mL) was added to the cell pellet and incubated for at least 30 min at 37 °C in the dark. Stained cells were analyzed using a flow cytometer (Becton Dickinson, Franklin Lakes, NJ, USA), counting 10,000 cells in each sample. Data were analyzed using FlowJo 10.10 software (FlowJo, Williamson Way Ashland, OR, USA).

[4] = system: colon cancer cells; experiment: Reactive nitrogen species level, DAF-FM probe, all tested cell lines; settings: any of the tested cell lines, compound at IC50, 24 h
Protocol: Diaminofluorescein-FM diacetate (DAF-FM diacetate, Invitrogen, Carlsbad, CA, USA), a cell-permeable fluorescent probe, is widely utilized for the detection and quantification of reactive nitrogen species (RNS), primarily nitric oxide (NO). […] Upon interaction with NO, however, it undergoes a chemical transformation resulting in the formation of a highly fluorescent benzotriazole derivative with excitation and emission maxima at 495 and 515 nm, respectively.
as §1, with “[…] Fluorescence” for “A volume of 50 µL of DHE solution in HBSS (final concentration 5 μM) was added to each well, and the cells were incubated for 30 min in the dark at 37 °C. After incubation with the DHE, fluorescence”, “(MA,” for “(Waltham, MA,”, “495” for “498”, “515” for “582”

Row | Compound | Decrease in GSH levels [1] | Increase in O2−• (superoxide anion) levels [2] | Increase in the G2/M phase cell percentage [3] | Change in RNS levels [4]
1 | O=C1/C(=C/c2ccccc2)COc2ccccc21 [Compound 1] | 25–30% | approximately 40% | 25% | –
2 | COc1cccc(/C=C2/C(=O)c3ccccc3OC2c2ccccc2)c1 (centres unmarked) [Compound 3] | – | – | – | no significant changes
3 | O=C1/C(=C/c2ccccc2)C(c2ccccc2)Oc2ccccc21 (centres unmarked) [Compound 5] | 25–30% | ~35% | 25% | no significant changes
